Source: US20220185832A1, “CD73 INHIBITORS” (BioArdis LLC, priority 2019, published 2022)

The molecules below were run against T1, Recombinant Human 5′-Nucleotidase (CD73) (Homo sapiens, UniProt P21589) (assay: CD73 Enzyme Assay). Details: 0.5 nM human CD73, 30 μM AMP, PiColorLock phosphate detection, OD 635 nm; read-out: Potency (IC50).
T1 construct: CHO derived CD73 (Trp27-Lys547), with a C-terminal 6-His tag; 6-His (C); purchased R&D 5795-EN; host or cells: CHO
T1 sequence (P21589 27-547): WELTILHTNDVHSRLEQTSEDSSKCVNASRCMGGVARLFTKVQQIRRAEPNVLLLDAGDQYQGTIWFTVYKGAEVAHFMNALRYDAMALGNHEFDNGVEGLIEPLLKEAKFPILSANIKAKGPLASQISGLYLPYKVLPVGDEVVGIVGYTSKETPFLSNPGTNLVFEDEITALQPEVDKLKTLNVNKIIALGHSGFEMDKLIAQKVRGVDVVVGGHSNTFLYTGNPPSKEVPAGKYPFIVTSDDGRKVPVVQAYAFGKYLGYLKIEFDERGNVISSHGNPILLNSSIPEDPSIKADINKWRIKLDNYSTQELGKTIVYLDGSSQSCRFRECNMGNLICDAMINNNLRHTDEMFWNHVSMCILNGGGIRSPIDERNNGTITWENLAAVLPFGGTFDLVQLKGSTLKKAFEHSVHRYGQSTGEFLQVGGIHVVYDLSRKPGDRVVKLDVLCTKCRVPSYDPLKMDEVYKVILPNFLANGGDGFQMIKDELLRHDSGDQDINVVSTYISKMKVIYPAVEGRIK
Assay type: biochemical
Text: Soluble recombinant CD73 catalyzes the conversion of adenosine monophosphate (AMP) to adenosine and inorganic phosphate. The phosphate detection reagent, PiColorLock™ (Innova Bioscience, Cat #303-0125) is based on the change in absorbance of the dye malachite green in the presence of inorganic phosphate (Pi) and this property can be exploited to measure any enzyme that generates Pi. Recombinant Human 5′-Nucleotidase (CD73) (R&D #5795-EN, CHO derived CD73 (Trp27-Lys547), with a C-terminal 6-His tag) was used in the enzymatic assay. This assay was run in a 384-well plate format (Corning® NBS™ 384 well plates, Cat #3640). The basic assay procedure involves two steps: 1) Enzyme reaction: The CD73 enzyme (R&D #5795-EN) is incubated in the presence or absence of compounds. AMP (sigma, cat #01930) is added to start the kinase reaction. 2) Detection step: “Gold mix” is added to the assay system, then stabilizers are added. After incubation the absorbance of the solution is read at OD 635 nm. The recorded OD signal is proportional to the enzyme activity.
Briefly, 25 μl human CD73 (0.5 nM final concentration) in the enzymatic buffer solutions (20 mM Tris, 25 mM NaCl, 1 mM MgCl2, pH 7.5, 0.005% Tween-20) were mixed with various concentrations of the test compound (dissolved in 100% DMSO). These solutions were incubated for 15 min at 25° C., and subsequently 25 μl AMP (30 μM final concentration) was added to start the reaction. The final reaction mixture of enzyme-substrate-compound was incubated for 20 min at 37° C. Meanwhile, “Gold mix” was prepared shortly before use by adding 1/100 vol. of accelerator to the PiColorLock™ Gold reagent. 12 μL/well of the “Gold mix” was added to assay plate containing 50 μL enzyme reaction buffer and incubated at 25° C. for 5 min. 5 μL/well stabilizer was added to the assay plate and incubated at 25° C. for 30 min. The absorbance of the well solutions was measured at 635 nm on a Spark 10M instrument (TECAN).
The percent (%) inhibition at each concentration of a compound was calculated relative to the OD value in the Max and Min control wells contained within each assay plate. The Max control wells contained enzyme and substrate as 0% inhibition, and the Min control wells only contained substrate without enzyme as 100% inhibition. The concentrations and percent inhibition values for a test compound are plotted and the concentration of the compound required to achieve 50% inhibition (IC50) was determined with a four-parameter logistic dose response equation.
With `O=P(O)(O)CP(=O)(O)OC[C@H]1O[C@@H](c2ccc3c(NCc4ccccc4)ncnc3c2)[C@@H](F)[C@@H]1O` [Compound 11, [({[(2R,3R,4S,5S)-5-[4-(benzylamino)quinazolin-7-yl]-4-fluoro-3-hydroxyoxolan-2-yl]methoxy}(hydroxy)phosphoryl)methyl]phosphonic acid] the IC50 was > 1000 nM. With `O=P(O)(O)CP(=O)(O)OC[C@H]1O[C@H](c2ccc3c(NCc4ccccc4)nc(Cl)nc3c2)[C@@H](F)[C@@H]1O` [Compound 14, [({[(2R,3R,4S, 5R)-5-[4-(benzylamino)-2-chloroquinazolin-7-yl]-4-fluoro-3-hydroxyoxolan-2-yl]methoxy}(hydroxy)phosphoryl)methyl]phosphonic acid] the IC50 was > 1000 nM. `CN(c1nc(Cl)nc2cc([C@@H]3O[C@H](COP(=O)(O)CP(=O)(O)O)[C@@H](O)[C@@H]3F)ccc12)C1CCCC1` [Compound 15, (((((2R,3R,4S,5S)-5-(2-chloro-4-(cyclopentyl(methyl)amino)quinazolin-7-yl)-4-fluoro-3-hydroxytetrahydrofuran-2-yl)methoxy)(hydroxy)phosphoryl)methyl)phosphonic acid] showed an IC50 of 100 to 999 nM. `N#C[C@@]1(c2ccc3c(NCc4ccccc4)nc(Cl)nc3c2)O[C@H](COP(=O)(O)CP(=O)(O)O)[C@@H](O)[C@H]1O` [Compound 16, (((((2R,3S,4R,5R)-5-(4-(benzylamino)-2-chloroquinazolin-7-yl)-5-cyano-3,4-dihydroxytetrahydrofuran-2-yl)methoxy)(hydroxy)phosphoryl)methyl)phosphonic acid] was tested, and the IC50 was > 1000 nM. With `O=P(O)(O)CP(=O)(O)OC[C@H]1O[C@@H](c2cc3nc(Cl)nc(NCc4ccccc4)c3cc2F)[C@H](O)[C@@H]1O` [Compound 19, (((((2R,3S,4R,5S)-5-(4-(benzylamino)-2-chloro-6-fluoroquinazolin-7-yl)-3,4-dihydroxytetrahydrofuran-2-yl)methoxy)(hydroxy)phosphoryl)methyl)phosphonic acid] the IC50 was 100 to 999 nM. Work on `CCc1nc(NCc2ccccc2)c2ccc([C@@H]3O[C@H](COP(=O)(O)CP(=O)(O)O)[C@@H](O)[C@H]3O)cc2n1` [Compound 20, [({[(2R,3S,4R,5S)-5-[4-(benzylamino)-2-ethylquinazolin-7-yl]-3,4-dihydroxyoxolan-2-yl]methoxy}(hydroxy)phosphoryl)methyl]phosphonic acid] yielded an IC50 of 100 to 999 nM. In the case of `O=P(O)(O)CP(=O)(O)OC[C@H]1O[C@@H](c2ccc3c(NCC4CCOC4)nc(Cl)nc3c2)[C@H](O)[C@@H]1O` (stereo partly drawn) [Compound 21, [({[(2R,3S,4R,5S)-5-[2-chloro-4-[(oxolan-3-ylmethyl)amino]quinazolin-7-yl]-3,4-dihydroxyoxolan-2-yl]methoxy}(hydroxy)phosphoryl)methyl]phosphonic acid], the IC50 is reported as 10 to 99 nM. `O=P(O)(O)CP(=O)(O)OC[C@H]1O[C@@H](c2ccc3c(N4CC5CCCC5C4)nc(Cl)nc3c2)[C@H](O)[C@@H]1O` (stereo partly drawn) [Compound 24, [({[(2R,3S,4R,5S)-5-(2-chloro-4-{hexahydro-1H-cyclopenta[c]pyrrol-2-yl}quinazolin-7-yl)-3,4-dihydroxyoxolan-2-yl]methoxy}(hydroxy)phosphoryl)methyl]phosphonic acid] was tested, and the IC50 was < 10 nM. Work on `O=P(O)(O)CP(=O)(O)OC[C@H]1O[C@@H](c2ccc3c(NC4CCC(O)CC4)nc(Cl)nc3c2)[C@H](O)[C@@H]1O` (stereo partly drawn) [Compound 26, (((((2R,3S,4R,5S)-5-(2-chloro-4-((4-hydroxycyclohexyl)amino)quinazolin-7-yl)-3,4-dihydroxytetrahydrofuran-2-yl)methoxy)(hydroxy)phosphoryl)methyl)phosphonic acid] yielded an IC50 of 10 to 99 nM. With `COC1CCC(Nc2nc(Cl)nc3cc([C@@H]4O[C@H](COP(=O)(O)CP(=O)(O)O)[C@@H](O)[C@H]4O)ccc23)CC1` (stereo partly drawn) [Compound 27, [({[(2R,3S,4R,5S)-5-{2-chloro-4-[(4-methoxycyclohexyl)amino]quinazolin-7-yl}-3,4-dihydroxyoxolan-2-yl]methoxy}(hydroxy)phosphoryl)methyl]phosphonic acid] the IC50 was 100 to 999 nM. `O=P(O)(O)CP(=O)(O)OC[C@H]1O[C@@H](c2ccc3c(N4CCCC4)nc(Cl)nc3c2)[C@H](O)[C@@H]1O` [Compound 29, (((((2R,3S,4R,5S)-5-(2-chloro-4-(pyrrolidin-1-yl)quinazolin-7-yl)-3,4-dihydroxytetrahydrofuran-2-yl)methoxy)(hydroxy)phosphoryl)methyl)phosphonic acid] showed an IC50 of 10 to 99 nM. In the case of `O=P(O)(O)CP(=O)(O)OC[C@H]1O[C@@H](c2ccc3c(N4CCc5ccccc54)nc(Cl)nc3c2)[C@H](O)[C@@H]1O` [Compound 30, (((((2R,3S,4R,5S)-5-(2-chloro-4-(indolin-1-yl)quinazolin-7-yl)-3,4-dihydroxytetrahydrofuran-2-yl)methoxy)(hydroxy)phosphoryl)methyl)phosphonic acid], the IC50 is reported as 100 to 999 nM. For `O=P(O)(O)CP(=O)(O)OC[C@H]1O[C@@H](c2cccc3c(NCc4ccccc4)nc(Cl)nc23)[C@H](O)[C@@H]1O` [Compound 32, (((((2R,3S,4R,5S)-5-(4-(benzylamino)-2-chloroquinazolin-8-yl)-3,4-dihydroxytetrahydrofuran-2-yl)methoxy)(hydroxy)phosphoryl)methyl)phosphonic acid], the IC50 was 100 to 999 nM. `O=P(O)(O)CP(=O)(O)OC[C@H]1O[C@@H](c2ccc3c(OC4CCCC4)nc(Cl)nc3c2)[C@H](O)[C@@H]1O` [Compound 33, (((((2R,3S,4R,5S)-5-(2-chloro-4-(cyclopentyloxy)quinazolin-7-yl)-3,4-dihydroxytetrahydrofuran-2-yl)methoxy)(hydroxy)phosphoryl)methyl)phosphonic acid] showed an IC50 of 100 to 999 nM. `C[C@@]1(O)[C@H](O)[C@@H](COP(=O)(O)CP(=O)(O)O)O[C@H]1c1ccc2c(NCc3ccccc3)nc(Cl)nc2c1` [Compound 34, (((((2R,3R,4R,5S)-5-(4-(benzylamino)-2-chloroquinazolin-7-yl)-3,4-dihydroxy-4-methyltetrahydrofuran-2-yl)methoxy)(hydroxy)phosphoryl)methyl)phosphonic acid] was tested, and the IC50 was > 1000 nM. Work on `O=P(O)(O)CP(=O)(O)OC[C@H]1O[C@@H](c2ccc3c(N4CCC(c5ccccc5)C4)nc(Cl)nc3c2)[C@H](O)[C@@H]1O` (stereo partly drawn) [Compound 35, (((((2R,3S,4R,5S)-5-(2-chloro-4-(3-phenylpyrrolidin-1-yl)quinazolin-7-yl)-3,4-dihydroxytetrahydrofuran-2-yl)methoxy)(hydroxy)phosphoryl)methyl)phosphonic acid] yielded an IC50 of 10 to 99 nM. In the case of `O=P(O)(O)CP(=O)(O)OC[C@H]1O[C@@H](c2ccc3c(N4CCc5ccccc5C4)nc(Cl)nc3c2)[C@H](O)[C@@H]1O` [Compound 36, [({[(2R,3S,4R,5S)-5-[2-chloro-4-(3,4-dihydro-1H-isoquinolin-2-yl)quinazolin-7-yl]-3,4-dihydroxyoxolan-2-yl]methoxy}(hydroxy)phosphoryl)methyl]phosphonic acid], the IC50 is reported as 10 to 99 nM. Molecule `O=P(O)(O)CP(=O)(O)OC[C@H]1O[C@@H](c2ccc3c(N[C@H]4CCOC4)nc(Cl)nc3c2)[C@H](O)[C@@H]1O` [Compound 37, (((((2R,3S,4R,5S)-5-(2-chloro-4-(((S)-tetrahydrofuran-3-yl)amino)quinazolin-7-yl)-3,4-dihydroxytetrahydrofuran-2-yl)methoxy)(hydroxy)phosphoryl)methyl)phosphonic acid] has an IC50 of 10 to 99 nM.
